Test results published in patent US12012403B2, “Aryl sulfonyl compounds as CCR6 inhibitors” (CHEMOCENTRYX, INC., priority 2021, dated 2024).

target: T1, human CCR6 (Homo sapiens, UniProt P51684); experiment: Migration (chemotaxis) assay, hCCR6-transfected Ba/F3 cells toward CCL20; assay type: cell-based; conditions: hCCR6-transfected Ba/F3 cells in human serum; recombinant human CCL20 10 nM; 37° C. 45 minutes; read-out: Potency (IC50 value in the migration assay)
T1 construct: expressed in transfected cells; host or cells: Ba/F3 cells (murine pro-B line), hCCR6-transfected, CMV promoter, sodium butyrate induction
T1 sequence (P51684 1-374): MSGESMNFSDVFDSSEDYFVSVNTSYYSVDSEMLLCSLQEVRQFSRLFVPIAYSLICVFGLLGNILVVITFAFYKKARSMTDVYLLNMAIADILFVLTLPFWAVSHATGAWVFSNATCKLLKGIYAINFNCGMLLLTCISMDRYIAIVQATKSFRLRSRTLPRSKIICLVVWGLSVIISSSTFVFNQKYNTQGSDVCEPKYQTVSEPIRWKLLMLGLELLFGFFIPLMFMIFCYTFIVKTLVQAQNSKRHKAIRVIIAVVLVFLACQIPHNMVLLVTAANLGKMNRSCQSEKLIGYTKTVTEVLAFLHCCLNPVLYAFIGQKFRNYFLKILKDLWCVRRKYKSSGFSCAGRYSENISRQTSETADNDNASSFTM
Outline: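 Ba/F3 cells stably transfected with human CCR6 (CMV promoter), pre-induced 24 hr with sodium butyrate, suspended at 4 million/ml in human serum with test compound serially diluted from 10 μM final. Migration through 5-μm polycarbonate membrane toward 10 nM CCL20 (EC50) for 45 min at 37 °C; migrated cells quantified by CyQUANT fluorescence.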

IC50 [nM]	Compound
5 to 100	NC(=O)CC1CCN(c2ccc(S(=O)(=O)N3CCC(Nc4ccc(C(F)(F)F)cn4)CC3)cc2)CC1 [Example 1.167]
5 to 100	O=S(=O)(c1ccc(N2CCC(O)(CO)CC2)cc1)N1CCC(Nc2ccc(C(F)(F)F)cn2)CC1 [Example 1.168]
100 to 10000	N#CC1CCN(c2ccc(S(=O)(=O)N3CCC(Nc4ccc(C(F)(F)F)cn4)CC3)cc2)CC1 [Example 1.171]
5 to 100	NC(=O)C(=O)N1CCN(c2ccc(S(=O)(=O)N3CCC(Nc4ccc(C(F)(F)F)cn4)CC3)cc2)CC1 [Example 1.173]
100 to 10000	O=S(=O)(c1ccc(N2CCN(c3nnc[nH]3)CC2)cc1)N1CCC(Nc2ccc(C(F)(F)F)cn2)CC1 [Example 1.174]
5 to 100	O=C1NC(=O)N2CCN(c3ccc(S(=O)(=O)N4CCC(Nc5ccc(C(F)(F)F)cn5)CC4)cc3)CC12 (centres unmarked) [Example 1.177]
5 to 100	CS(=O)(=O)N1CCCC(c2ccc(S(=O)(=O)N3CCC(Nc4ccc(C(F)(F)F)cn4)CC3)cc2)C1 (centres unmarked) [Example 1.179]
5 to 100	CC1(O)CCN(c2ccc(S(=O)(=O)N3CCC(Nc4ccc(C(F)(F)F)cn4)CC3)cc2)CC1 [Example 1.182]
5 to 100	O=S(=O)(c1ccc(N2CCC[C@@H](O)C2)cc1)N1CCC(Nc2ccc(C(F)(F)F)cn2)CC1 [Example 1.185]
100 to 10000	O=S(=O)(c1ccc(N2CC[C@@H](O)C2)cc1)N1CCC(Nc2ccc(C(F)(F)F)cn2)CC1 [Example 1.186]
5 to 100	O=S(=O)(c1ccc(N2CCC(CO)CC2)cc1)N1CCC(Nc2ccc(C(F)(F)F)cn2)CC1 [Example 1.188]
100 to 10000	NS(=O)(=O)C1CCN(c2ccc(S(=O)(=O)N3CCC(Nc4ccc(C(F)(F)F)cn4)CC3)cc2)CC1 [Example 1.189]
100 to 10000	NC(=O)N[C@H]1CCCN(c2ccc(S(=O)(=O)N3CCC(Nc4ccc(C(F)(F)F)cn4)CC3)cc2)C1 [Example 1.191]
100 to 10000	CC(=O)N[C@H]1CCCN(c2ccc(S(=O)(=O)N3CCC(Nc4ccc(C(F)(F)F)cn4)CC3)cc2)C1 [Example 1.193]
5 to 100	O=C(CO)N1CCN(c2ccc(S(=O)(=O)N3CCC(Nc4ccc(C(F)(F)F)cn4)CC3)cc2)CC1 [Example 1.194]
100 to 10000	O=S(=O)(c1ccc(N2CC[C@H](O)C2)cc1)N1CCC(Nc2ccc(C(F)(F)F)cn2)CC1 [Example 1.197]

IC50 [nM]	Compound
5 to 100	O=S(=O)(c1ccc(N2CCC[C@H](O)C2)cc1)N1CCC(Nc2ccc(C(F)(F)F)cn2)CC1 [Example 1.198]
100 to 10000	CS(=O)(=O)N1CCCN(c2ccc(S(=O)(=O)N3CCC(Nc4ccc(C(F)(F)F)cn4)CC3)cc2)CC1 [Example 1.199]
5 to 100	CS(=O)(=O)N1CCN(c2ccc(S(=O)(=O)N3CCC(Nc4ccc(C(F)(F)F)cn4)CC3)cc2)CC1 [Example 1.200]
100 to 10000	CC(=O)N1CCCN(c2ccc(S(=O)(=O)N3CCC(Nc4ccc(C(F)(F)F)cn4)CC3)cc2)CC1 [Example 1.201]
5 to 100	NC(=O)N1CCCN(c2ccc(S(=O)(=O)N3CCC(Nc4ccc(C(F)(F)F)cn4)CC3)cc2)CC1 [Example 1.203]
5 to 100	NC(=O)N1CCN(c2ccc(S(=O)(=O)N3CCC(Nc4ccc(C(F)(F)F)cn4)CC3)cc2)CC1 [Example 1.204]
5 to 100	NC(=O)NC1CCN(c2ccc(S(=O)(=O)N3CCC(Nc4ccc(C(F)(F)F)cn4)CC3)cc2)CC1 [Example 1.205]
5 to 100	CS(=O)(=O)NC1CCN(c2ccc(S(=O)(=O)N3CCC(Nc4ccc(C(F)(F)F)cn4)CC3)cc2)CC1 [Example 1.206]
5 to 100	CC(=O)NC1CCN(c2ccc(S(=O)(=O)N3CCC(Nc4ccc(C(F)(F)F)cn4)CC3)cc2)CC1 [Example 1.210]
100 to 10000	O=C1CN(c2ccc(S(=O)(=O)N3CCC(Nc4ccc(C(F)(F)F)cn4)CC3)cc2)CCN1 [Example 1.211]
5 to 100	CC(=O)N1CCN(c2ccc(S(=O)(=O)N3CCC(Nc4ccc(C(F)(F)F)cn4)CC3)cc2)CC1 [Example 1.226]
100 to 10000	O=C1CCCCN1c1ccc(S(=O)(=O)N2CCC(Nc3ccc(C(F)(F)F)cn3)CC2)cc1 [Example 1.227]
5 to 100	NC(=O)C1CCN(c2ccc(S(=O)(=O)N3CCC(Nc4ccc(C(F)(F)F)cn4)CC3)cc2)CC1 [Example 1.228]
5 to 100	NC(=O)C1CCCN(c2ccc(S(=O)(=O)N3CCC(Nc4ccc(C(F)(F)F)cn4)CC3)cc2)C1 (centres unmarked) [Example 1.230]
100 to 10000	O=S1(=O)CCN(c2ccc(S(=O)(=O)N3CCC(Nc4ccc(C(F)(F)F)cn4)CC3)cc2)CC1 [Example 1.231]
100 to 10000	CN1CCN(c2ccc(S(=O)(=O)N3CCC(Nc4ccc(C(F)(F)F)cn4)CC3)cc2)CC1 [Example 1.232]

More lines, now with the values behind:

Compound	IC50 [nM]
O=C1NCCC12CCN(c1ccc(S(=O)(=O)N3CCC(Nc4ccc(C(F)(F)F)cn4)CC3)cc1)CC2 [Example 1.172]	< 5
NC(=O)N1CCC2(CCN(c3ccc(S(=O)(=O)N4CCC(Nc5ccc(C(F)(F)F)cn5)CC4)cc3)C2)C1 (centres unmarked) [Example 1.175]	5 to 100
NC(=O)N1C[C@@H]2CN(c3ccc(S(=O)(=O)N4CCC(Nc5ccc(C(F)(F)F)cn5)CC4)cc3)C[C@@H]2C1 [Example 1.176]	5 to 100
O=S(=O)(c1ccc(N2[C@@H]3CC[C@H]2C[C@@H](O)C3)cc1)N1CCC(Nc2ccc(C(F)(F)F)cn2)CC1 [Example 1.180]	5 to 100
O=S(=O)(c1ccc(N2CC[C@H](O)[C@@H](CO)C2)cc1)N1CCC(Nc2ccc(C(F)(F)F)cn2)CC1 [Example 1.181]	5 to 100
CC(=O)N1CCCC(c2ccc(S(=O)(=O)N3CCC(Nc4ccc(C(F)(F)F)cn4)CC3)cc2)C1 (centres unmarked) [Example 1.183]	5 to 100
CC(=O)N1CCC(c2ccc(S(=O)(=O)N3CCC(Nc4ccc(C(F)(F)F)cn4)CC3)cc2)CC1 [Example 1.184]	5 to 100
O=S(=O)(c1ccc(N2CC3(CC(O)C3)C2)cc1)N1CCC(Nc2ccc(C(F)(F)F)cn2)CC1 [Example 1.187]	5 to 100
NC(=O)N[C@H]1CCN(c2ccc(S(=O)(=O)N3CCC(Nc4ccc(C(F)(F)F)cn4)CC3)cc2)C1 [Example 1.190]	100 to 10000
CC(=O)N[C@H]1CCN(c2ccc(S(=O)(=O)N3CCC(Nc4ccc(C(F)(F)F)cn4)CC3)cc2)C1 [Example 1.192]	100 to 10000
NC(=O)C1CCN(c2ccc(S(=O)(=O)N3CCC(Nc4ccc(C(F)(F)F)cn4)CC3)cc2)C1 (centres unmarked) [Example 1.195]	100 to 10000
NC(=O)C1CN(c2ccc(S(=O)(=O)N3CCC(Nc4ccc(C(F)(F)F)cn4)CC3)cc2)C1 [Example 1.196]	100 to 10000
NC(=O)C1CN(c2ccc(S(=O)(=O)N3CCC(Nc4ccc(C(F)(F)F)cn4)CC3)cc2)CCO1 (centres unmarked) [Example 1.202]	5 to 100
N#Cc1n[nH]c2c1CN(c1ccc(S(=O)(=O)N3CCC(Nc4ccc(C(F)(F)F)cn4)CC3)cc1)CC2 [Example 1.207]	100 to 10000
O=S(=O)(c1ccc(N2CCC(O)CC2)c(F)c1)N1CCC(Nc2ccc(C(F)(F)F)cn2)CC1 [Example 1.208]	100 to 10000
O=S(=O)(c1ccc(N2CCC(O)CC2)nc1)N1CCC(Nc2ccc(C(F)(F)F)cn2)CC1 [Example 1.209]	100 to 10000
CC(C)(C)OC(=O)N[C@@H]1CCN(c2ccc(S(=O)(=O)N3CCC(Nc4ccc(C(F)(F)F)cn4)CC3)cc2)C1 [Example 1.212]	100 to 10000
CC(C)(C)OC(=O)N[C@@H]1CCCN(c2ccc(S(=O)(=O)N3CCC(Nc4ccc(C(F)(F)F)cn4)CC3)cc2)C1 [Example 1.213]	100 to 10000
O=S(=O)(c1ccc(N2CCc3[nH]ncc3C2)cc1)N1CCC(Nc2ccc(C(F)(F)F)cn2)CC1 [Example 1.214]	5 to 100
NC(=O)N1CCCC(c2ccc(S(=O)(=O)N3CCC(Nc4ccc(C(F)(F)F)cn4)CC3)cc2)C1 (centres unmarked) [Example 1.215]	5 to 100
NC(=O)N1CCC(c2ccc(S(=O)(=O)N3CCC(Nc4ccc(C(F)(F)F)cn4)CC3)cc2)CC1 [Example 1.216]	5 to 100
CC(C)(C)OC(=O)NC1CCN(c2ccc(S(=O)(=O)N3CCC(Nc4ccc(C(F)(F)F)cn4)CC3)cc2)CC1 [Example 1.217]	5 to 100
CC(C)(C)OC(=O)N[C@H]1CCN(c2ccc(S(=O)(=O)N3CCC(Nc4ccc(C(F)(F)F)cn4)CC3)cc2)C1 [Example 1.218]	100 to 10000
CC(C)(C)OC(=O)N[C@H]1CCCN(c2ccc(S(=O)(=O)N3CCC(Nc4ccc(C(F)(F)F)cn4)CC3)cc2)C1 [Example 1.219]	100 to 10000
O=S(=O)(c1ccc(N2CCC(Nc3ccccc3)CC2)cc1)N1CCC(Nc2ccc(C(F)(F)F)cn2)CC1 [Example 1.220]	5 to 100
Cc1nc2c(s1)CN(c1ccc(S(=O)(=O)N3CCC(Nc4ccc(C(F)(F)F)cn4)CC3)cc1)CC2 [Example 1.221]	5 to 100
O=S(=O)(c1ccc(N2CCC(c3ccn[nH]3)CC2)cc1)N1CCC(Nc2ccc(C(F)(F)F)cn2)CC1 [Example 1.222]	5 to 100
O=C1NC(=O)C2(CCCN(c3ccc(S(=O)(=O)N4CCC(Nc5ccc(C(F)(F)F)cn5)CC4)cc3)C2)N1 (centres unmarked) [Example 1.224]	100 to 10000
O=S(=O)(c1ccc(C2CCCNC2)cc1)N1CCC(Nc2ccc(C(F)(F)F)cn2)CC1 (centres unmarked) [Example 1.225]	100 to 10000
O=S(=O)(c1ccc(N2CCn3ccnc3C2)cc1)N1CCC(Nc2ccc(C(F)(F)F)cn2)CC1 [Example 1.229]	100 to 10000
